Consider 4 molecules from patent US11918563B1, “Methods and compositions for treatment of epileptic disorders” (Ovid Therapeutics Inc., priority 2016, dated 2024).

Where two headings read alike, the source gives them in different places. Marks after values point to notes of the source that are not given here.

Series [1] has as its system Li-Pilo model of status epilepticus. The series is described as follows: Ability to block benzodiazepine-resistant status epilepticus in the Li-Pilo model. It counts as in vivo, male Sprague Dawley rats. As to the method: At the conclusion of the behavioral observation period, a 3 mL injection of lactated Ringer's solution is administered to all surviving rats to replace any SE-induced fluid loss.
All animals in the study are retained for 24 hours following completion of the study for assessment of weight change.
Additional measures of effects, e.g., motor impairment, weight change post-SE, or survival from SE for 24 hrs are also recorded during the studies for all treatment conditions.

The conditions of series [2]: human, in vivo, po.
The conditions of series [3]: for Fe: geometric mean N=10.
The conditions of series [4]: three-month efficacy study, insomnia; cited from earlier work.
For series [5] the following is noted: patients with a history of drug abuse; cited from earlier work.
The mark [6] stands for this setting: 0.5 mg/kg i.p. 30 min after first convulsive seizure, rats.
The mark [7] stands for this setting: 2 mg/kg i.p. 30 min after first convulsive seizure, rats.
[8] abbreviates: 5 mg/kg i.p. 30 min after first convulsive seizure, rats.
Setting [9] is: 10 mg/kg i.p. 30 min after first convulsive seizure, rats.
The mark [10] stands for this setting: 20 mg/kg i.p. 30 min after first convulsive seizure, rats.

With `CC(=O)[C@H]1CC[C@H]2[C@@H]3CC[C@H]4C[C@H](O)CC[C@]4(C)[C@H]3CC[C@]12C` [ALLO, allopregnanolone], the “Protection (includes PK rats), percent” value in series [1] (setting [6]) is recorded as “(0%)”; in series [1] (setting [7]), “(0%)”; in series [1] (setting [8]) it was “(0%)”; in series [1] (setting [9]), “(15%)”; in series [1] (setting [10]), “(7.7%)”. Also, the “Protection (includes PK rats), protected/total” value in series [1] (setting [6]) is 0/13; in series [1] (setting [7]) it was 0/13; in series [1] (setting [8]), 0/13; in series [1] (setting [9]), 2/13; in series [1] (setting [10]), 1/13. The “24-hour Survival (excludes PK rats), percent” value in series [1] (0.5 mg/kg i.p., rats) is “(60%)”; in series [1] (2 mg/kg i.p., rats), “(70%)”; in series [1] (5 mg/kg i.p., rats), “(72%)”; in series [1] (10 mg/kg i.p., rats), “(90%)”; in series [1] (20 mg/kg i.p., rats), “(90%)”. Further, the “24-hour Survival (excludes PK rats), survivors/total” value in series [1] (0.5 mg/kg i.p., rats) is given as 6/10; in series [1] (2 mg/kg i.p., rats) it was 7/10; in series [1] (5 mg/kg i.p., rats), 7/9; in series [1] (10 mg/kg i.p., rats) it was 9/10; in series [1] (20 mg/kg i.p., rats) it was 9/10.

On to `CCN(CC)CCN1C(=O)CN=C(c2ccccc2F)c2cc(Cl)ccc21` [Flurazepam, flurazepam], for which, in series [2], the “Residual effect on primary endpoints Choice Reaction Time and Critical Flicker Fusion” value was “showed significant effect”.

As for `CC(=O)[C@H]1CC[C@H]2[C@@H]3CC[C@H]4C[C@](C)(O)CC[C@]4(C)[C@H]3CC[C@]12C` [GNX, ganaxolone], the “Protection (includes PK rats), percent” value is “(0%)” in series [1] (setting [6]); “(0%)” in series [1] (setting [7]); “(0%)” in series [1] (setting [8]); “(7.7%)” in series [1] (setting [9]); “(30.8%)*” in series [1] (setting [10]). Further, the “Protection (includes PK rats), protected/total” value is on record as 0/13 in series [1] (setting [6]); 0/13 in series [1] (setting [7]); 0/13 in series [1] (setting [8]); 1/13 in series [1] (setting [9]); 4/13 in series [1] (setting [10]). For the same molecule, the “24-hour Survival (excludes PK rats), percent” value in series [1] (0.5 mg/kg i.p., rats) was “(60%)”; in series [1] (2 mg/kg i.p., rats), “(80%)”; in series [1] (5 mg/kg i.p., rats), “(70%)”; in series [1] (10 mg/kg i.p., rats), “(90%)”; in series [1] (20 mg/kg i.p., rats), “(90%)”. In addition, the “24-hour Survival (excludes PK rats), survivors/total” value in series [1] (0.5 mg/kg i.p., rats) is on record as 6/10; in series [1] (2 mg/kg i.p., rats), 8/10; in series [1] (5 mg/kg i.p., rats), 7/10; in series [1] (10 mg/kg i.p., rats), 9/10; in series [1] (20 mg/kg i.p., rats), 9/10. For the same molecule, in series [1] (20 mg/kg i.p., dose-dependent efficacy), the “Improvement in protection, in words” value is recorded as “significant (p<0.02) improvement in protection”.

`Oc1noc2c1CCNC2` [gaboxadol, 4,5,6,7-tetrahydroisoxazolo [5,4-c] pyridine-3-ol]: the “24-hour survival, in words” value in series [1] (10 mg/kg, rats) is “Significant improvements in 24-hour survival”. Further, the “Dose-response profile of protection, in words” value in series [1] (i.p., p=0.071 at 0.5 mg/kg) is listed as “Potential for inverted U-response profile”. Also, the Fe is 43% in series [3] (2.5 mg single oral dose); 45% in series [3] (5 mg single oral dose); 53% in series [3] (10 mg I.V.); 53% in series [3] (10 mg Oral); 50% in series [3] (15 mg single oral dose); 53% in series [3] (20 mg single oral dose). Also, the “CL (in CL/F row)” value in series [3] (human, in vivo, iv, 10 mg) was 438 mL/min. For the same molecule, in series [3] (human, in vivo, po), the “AUC0-∞ Slope (dose proportionality assessment)” value is 0.98. Further, the “Cmax Slope (dose proportionality assessment)” value in series [3] (human, in vivo, po) was 0.95. Also, the CL/F (as a rule, the apparent clearance, not corrected for the fraction that reaches the circulation) in series [3] (human, in vivo, po, 2.5 mg) is recorded as 461 mL/min; in series [3] (human, in vivo, po, 5 mg) it was 488 mL/min; in series [3] (human, in vivo, po, 10 mg), 476 mL/min; in series [3] (human, in vivo, po, 15 mg), 469 mL/min; in series [3] (human, in vivo, po, 20 mg), 499 mL/min. The “Residual effect on primary endpoints Choice Reaction Time and Critical Flicker Fusion” value in series [2] was “did not show residual effect”. Besides, the “Residual effects on other measurements (MSLT, DSST, Tracking, Memory tests, Body Sway, Leeds Sleep Evaluation Questionnaire)” value in series [2] is given as “did not show any signs of residual effects”. Moreover, the “Effects in sleep onset and sleep maintenance” value in series [4] is “failed to show significant effects”. In series [5], the Psychiatric adverse events entry was “steep increase in psychiatric adverse events”.
